Target: T1, MCR-1 (Homo sapiens, UniProt Q01726)
T1 construct: expressed in transfected cells; host or cells: HEK 293
Experiment: Melanocortin receptor binding assay, competition with 125I-HP 467, HEK 293 cells expressing hMCR-1
Details: for % Disp. MC-1 10 μM: displacement of 125I-HP 467 at 10 μM isoquinoline compound
Description: All cell culture media and reagents were obtained from GibcoBRL (Gaithersburg Md.), except for COSMIC CALF SERUM (HyClone; Logan Utah).
Cells were suspended in PBS, 10% COSMIC CALF SERUM and 1 mM CaCl2. Cell suspensions were prepared at a density of 2×10^4 cells/ml for HEK 293 cells expressing hMCR-3, hMCR-4 or hMCR-5, and 1×10^5 cells/ml for HEK 293 cells expressing hMCR-1. Suspensions were placed in a water bath and allowed to warm to 37° C. for 1 hr.
Binding assays were performed in a total volume of 250 μl for HEK 293 cells. […] To each tube was added 4×10^3 HEK 293 cells expressing hMCR-3, hMCR-4 or hMCR-5, or 2×10^4 cells expressing hMCR-1. Assays were incubated for 2.5 hr at 37° C.
GF/B filter plates were prepared by soaking for at least one hour in 5 mg/ml BSA and 10 mM CaCl2. Assays were filtered using a Brandel 96-well cell harvester (Brandel Inc.; Gaithersburg, Md.). The filters were washed four times with cold 50 mM Tris, pH 7.4, the filter plates were dehydrated for 2 hr and 35 μl of MICROSCINT was added to each well. Filter plates were counted using a Packard Topcount (Packard Instrument Co.) and data analyzed using GraphPad PRISM v2.0 (GraphPad Software Inc.; San Diego Calif.) and Microsoft EXCEL v5.0a (Microsoft Corp.; Redmond Wash.).
To assay isoquinoline compounds, binding assays were performed in duplicate in a 96 well format. […] A 0.2 ml aliquot of suspended cells was added to each well to give the cell numbers indicate above, and the cells were incubated at 37° C. for 2.5 hr. Cells were harvested on GF/B filter plates as described above and counted.

T1 sequence (Q01726 whole entry): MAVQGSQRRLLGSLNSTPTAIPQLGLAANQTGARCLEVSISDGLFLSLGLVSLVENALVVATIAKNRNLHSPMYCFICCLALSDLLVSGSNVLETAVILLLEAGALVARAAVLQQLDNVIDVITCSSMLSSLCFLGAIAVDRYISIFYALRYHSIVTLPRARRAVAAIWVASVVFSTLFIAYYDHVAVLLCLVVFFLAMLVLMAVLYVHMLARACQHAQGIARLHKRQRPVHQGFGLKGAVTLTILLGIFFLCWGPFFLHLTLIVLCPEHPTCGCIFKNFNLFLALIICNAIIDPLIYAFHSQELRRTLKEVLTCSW

Compound	% Disp. MC-1 10 μM (first of duplicate) [%]	% Disp. MC-1 10 μM (second of duplicate) [%]	% Disp. of 125I-HP 467 (first of duplicate) (10 μM isoquinoline compound, HEK 293 cells expressing MCR-1, duplicate 1) [%]	% Disp. of 125I-HP 467 (second of duplicate) (10 μM isoquinoline compound, HEK 293 cells expressing MCR-1, duplicate 2) [%]
CNC(CN)CN1Cc2ccccc2C(CNC2CCCCC2)C1c1ccc2c(c1)OCCO2 (stereo not shown) [TRG 2405-93]	43.2	56.2		
CNC(CN)CN1Cc2ccccc2C(CNC2CCCCC2)C1c1cccc2ccccc12 (stereo not shown) [TRG 2405-95]	45.6	51.1		
CNC(CN)CN1Cc2ccccc2C(CNC2CCCCC2)C1c1ccc(F)c(F)c1F (stereo not shown) [TRG 2405-96]	44.5	54.4		
CNC(CN)CN1Cc2ccccc2C(CNC2CCCCC2)C1c1cc(Cl)cc(Cl)c1Cl (stereo not shown) [TRG 2405-97]	58.2	61.1		
CNC(CN)CN1Cc2ccccc2C(CNC2CCCCC2)C1c1cccc2c1OCO2 (stereo not shown) [TRG 2405-98]	20.1	48.3		
CNC(CN)CN1Cc2ccccc2C(CNC2CCCCC2)C1c1cccc(F)c1F (stereo not shown) [TRG 2405-99]	34.7	54.2		
CNC(CN)CN1Cc2ccccc2C(CNC2CCCCC2)C1c1c(F)cccc1F (stereo not shown) [TRG 2405-101]	34	45.3		
CNC(CN)CN1Cc2ccccc2C(CNC2CCCCC2)C1c1ccccc1Br (stereo not shown) [TRG 2405-102]	44.7	50.4		
CNC(CN)CN1Cc2ccccc2C(CNC2CCCCC2)C1c1c(F)cccc1Cl (stereo not shown) [TRG 2405-104]	32.8	33.3		
CNC(CN)CN1Cc2ccccc2C(CNC2CCCCC2)C1c1ccccc1CN (stereo not shown) [TRG 2405-105]	20.2	49.9		
CNC(CN)CN1Cc2ccccc2C(CNC2CCCCC2)C1c1ccccc1F (stereo not shown) [TRG 2405-106]	40.7	44.7		
CNC(CN)CN1Cc2ccccc2C(CNC2CCCCC2)C1c1ccco1 (stereo not shown) [TRG 2405-107]	43.1	52.1		
CNC(CN)CN1Cc2ccccc2C(CNC2CCCCC2)C1c1ncc[nH]1 (stereo not shown) [TRG 2405-108]	46	46.6		
CNC(CN)CN1Cc2ccccc2C(CNC2CCCCC2)C1c1ccccc1OC (stereo not shown) [TRG 2405-109]	34.7	44.7		
CNC(CN)CN1Cc2ccccc2C(CNC2CCCCC2)C1c1ccc2ccccc2c1 (stereo not shown) [TRG 2405-110]	59.5	61.6		
CNC(CN)CN1Cc2ccccc2C(CNC2CCCCC2)C1c1cccs1 (stereo not shown) [TRG 2405-113]	40	58.5		
CNC(CN)CN1Cc2ccccc2C(CNC2CCCCC2)C1c1ccc(Cl)c(Cl)c1 (stereo not shown) [TRG 2405-116]	62.3	63		
CNC(CN)CN1Cc2ccccc2C(CNC2CCCCC2)C1c1ccc(F)c(F)c1 (stereo not shown) [TRG 2405-117]	40.9	55.7		
CNC(CN)CN1Cc2ccccc2C(CNC2CCCCC2)C1c1cc(O)cc(O)c1 (stereo not shown) [TRG 2405-119]	25.9	39.8		
CNC(CN)CN1Cc2ccccc2C(CNC2CCCCC2)C1c1cc(OC)cc(OC)c1 (stereo not shown) [TRG 2405-121]	35.3	38.7		
CNC(CN)CN1Cc2ccccc2C(CNC2CCCCC2)C1c1cc(C)c(O)c(C)c1 (stereo not shown) [TRG 2405-122]	17.6	40.7		
CNC(CN)CN1Cc2ccccc2C(CNC2CCCCC2)C1c1cccc(Oc2ccc(Cl)c(Cl)c2)c1 (stereo not shown) [TRG 2405-123]	47.9	55.6		
CNC(CN)CN1Cc2ccccc2C(CNC2CCCCC2)C1c1cccc(C(F)(F)F)c1 (stereo not shown) [TRG 2405-125]	59.1	58.4		
CNC(CN)CN1Cc2ccccc2C(CNC2CCCCC2)C1c1cccc(Br)c1 (stereo not shown) [TRG 2405-127]	50.6	60.3		
CNC(CN)CN1Cc2ccccc2C(CNC2CCCCC2)C1c1cccc(CN)c1 (stereo not shown) [TRG 2405-129]	39.8	39.6		
CNC(CN)CN1Cc2ccccc2C(CNC2CCCCC2)C1c1ccc(OC)c(F)c1 (stereo not shown) [TRG 2405-130]	48.9	43.3		
CNC(CN)CN1Cc2ccccc2C(CNC2CCCCC2)C1c1cccc(F)c1 (stereo not shown) [TRG 2405-131]	39.2	55.7		

Compound	% Disp. MC-1 10 μM (first of duplicate) [%]	% Disp. MC-1 10 μM (second of duplicate) [%]	% Disp. of 125I-HP 467 (first of duplicate) (10 μM isoquinoline compound, HEK 293 cells expressing MCR-1, duplicate 1) [%]	% Disp. of 125I-HP 467 (second of duplicate) (10 μM isoquinoline compound, HEK 293 cells expressing MCR-1, duplicate 2) [%]
CNC(CN)CN1Cc2ccccc2C(CNC2CCCCC2)C1c1ccoc1 (stereo not shown) [TRG 2405-132]	51.6	51.7		
CNC(CN)CN1Cc2ccccc2C(CNC2CCCCC2)C1c1cccc(OC)c1 (stereo not shown) [TRG 2405-135]	43.9	39.7		
CNC(CN)CN1Cc2ccccc2C(CNC2CCCCC2)C1c1cccc(C)c1 (stereo not shown) [TRG 2405-137]	40.6	46		
CNC(CN)CN1Cc2ccccc2C(CNC2CCCCC2)C1c1cccc([N+](=O)[O-])c1 (stereo not shown) [TRG 2405-139]	40.3	45.5		
CNC(CN)CN1Cc2ccccc2C(CNC2CCCCC2)C1c1cccc(Oc2ccccc2)c1 (stereo not shown) [TRG 2405-140]	67.6	67.8		
CNC(CN)CN1Cc2ccccc2C(CNC2CCCCC2)C1c1cccnc1 (stereo not shown) [TRG 2405-141]	15	16.2		
CNC(CN)CN1Cc2ccccc2C(CNC2CCCCC2)C1c1cnc2ccccc2c1 (stereo not shown) [TRG 2405-142]	48.5	45.1		
CNC(CN)CN1Cc2ccccc2C(CNC2CCCCC2)C1c1ccc(OCCCN(C)C)cc1 (stereo not shown) [TRG 2405-144]	29.6	41.7		
CNC(CN)CN1Cc2ccccc2C(CNC2CCCCC2)C1c1ccc(N(C)C)cc1 (stereo not shown) [TRG 2405-145]	41.2	49.7		
CNC(CN)CN1Cc2ccccc2C(CNC2CCCCC2)C1c1ccc(SC)cc1 (stereo not shown) [TRG 2405-147]	31.6	38.9		
CCNc1ccc(C2C(CNC3CCCCC3)c3ccccc3CN2CC(CN)NC)cc1 (stereo not shown) [TRG 2405-149]	30.1	52.3		
CNC(CN)CN1Cc2ccccc2C(CNC2CCCCC2)C1c1ccc(OC)cc1 (stereo not shown) [TRG 2405-150]	37.6	54.7		
CNC(CN)CN1Cc2ccccc2C(CNC2CCCCC2)C1c1ccc(-c2ccccc2)cc1 (stereo not shown) [TRG 2405-151]	61.5	57.6		
CNC(CN)CN1Cc2ccccc2C(CNC2CCCCC2)C1c1ccc(CN)cc1 (stereo not shown) [TRG 2405-154]	43.1	54.8		
CNC(CN)CN1Cc2ccccc2C(CNC2CCCCC2)C1c1ccc(F)cc1 (stereo not shown) [TRG 2405-155]	52.3	55.6		
CNC(CN)CN1Cc2ccccc2C(CNC2CCCCC2)C1c1ccc(C(C)C)cc1 (stereo not shown) [TRG 2405-157]	56.4	56.1		
CNC(CN)CN1Cc2ccccc2C(CNC2CCCCC2)C1c1ccc(OC)c2ccccc12 (stereo not shown) [TRG 2405-158]	45.6	45.8		
CNC(CN)CN1Cc2ccccc2C(CNC2CCCCC2)C1c1ccc(C)cc1 (stereo not shown) [TRG 2405-159]	51	53.5		
CNC(CN)CN1Cc2ccccc2C(CNC2CCCCC2)C1c1ccc(Oc2ccccc2)cc1 (stereo not shown) [TRG 2405-162]	71	59.6		
CCCOc1ccc(C2C(CNC3CCCCC3)c3ccccc3CN2CC(CN)NC)cc1 (stereo not shown) [TRG 2405-163]	62.4	58.1		
CNC(CN)CN1Cc2ccccc2C(CNC2CCCCC2)C1c1ccncc1 (stereo not shown) [TRG 2405-164]	24.7	33.5		
CNC(CN)CN1Cc2ccccc2C(CNC2CCCCC2)C1c1ccnc2ccccc12 (stereo not shown) [TRG 2405-165]	37.3	34.6		
CNC(CN)CN1Cc2ccccc2C(CNC2CCCCC2)C1c1ccc(C)s1 (stereo not shown) [TRG 2405-168]	44.9	24.1		
CNC(CN)CN1Cc2ccccc2C(CNC2CCCCC2)C1c1ccc(C)o1 (stereo not shown) [TRG 2405-169]	62.2	51.5		
CNC(CN)CN1Cc2ccccc2C(CNC2CCCCC2)C1c1cccc(C)n1 (stereo not shown) [TRG 2405-171]	63.1	49.7		
CNC(CN)CN1Cc2ccccc2C(CNC2CCCCC2)C1c1ccc2cccc(O)c2n1 (stereo not shown) [TRG 2405-172]			59.4	43.9

— US6608082B1, “Treatment of erectile dysfunction using isoquinoline compound melanocortin receptor ligands” (Lion Bioscience AG, priority 1998, dated 2003)
